Laboratory results published in patent US9540389B2, “Antimicrobial potentiators” (priority 2013, dated 2017).
In brackets after ≈: the same amount, converted by molar mass.

Legend:
Escherichia coli AB1157 = experiment: microbe, parasite or virus in culture
AcrAB-TolC efflux pump = AcrAB-TolC efflux pump (Escherichia coli, UniProt P31224); experiment: H33342 accumulation assay; assay type: cell-based, Escherichia coli 285; design: endogenous in cells; host or cells: E. coli strains 285 and 287 (ciprofloxacin-resistant mutants of AB1157); conditions: hyper-efflux strain 285
Chain of AcrAB-TolC efflux pump (P31224 whole entry): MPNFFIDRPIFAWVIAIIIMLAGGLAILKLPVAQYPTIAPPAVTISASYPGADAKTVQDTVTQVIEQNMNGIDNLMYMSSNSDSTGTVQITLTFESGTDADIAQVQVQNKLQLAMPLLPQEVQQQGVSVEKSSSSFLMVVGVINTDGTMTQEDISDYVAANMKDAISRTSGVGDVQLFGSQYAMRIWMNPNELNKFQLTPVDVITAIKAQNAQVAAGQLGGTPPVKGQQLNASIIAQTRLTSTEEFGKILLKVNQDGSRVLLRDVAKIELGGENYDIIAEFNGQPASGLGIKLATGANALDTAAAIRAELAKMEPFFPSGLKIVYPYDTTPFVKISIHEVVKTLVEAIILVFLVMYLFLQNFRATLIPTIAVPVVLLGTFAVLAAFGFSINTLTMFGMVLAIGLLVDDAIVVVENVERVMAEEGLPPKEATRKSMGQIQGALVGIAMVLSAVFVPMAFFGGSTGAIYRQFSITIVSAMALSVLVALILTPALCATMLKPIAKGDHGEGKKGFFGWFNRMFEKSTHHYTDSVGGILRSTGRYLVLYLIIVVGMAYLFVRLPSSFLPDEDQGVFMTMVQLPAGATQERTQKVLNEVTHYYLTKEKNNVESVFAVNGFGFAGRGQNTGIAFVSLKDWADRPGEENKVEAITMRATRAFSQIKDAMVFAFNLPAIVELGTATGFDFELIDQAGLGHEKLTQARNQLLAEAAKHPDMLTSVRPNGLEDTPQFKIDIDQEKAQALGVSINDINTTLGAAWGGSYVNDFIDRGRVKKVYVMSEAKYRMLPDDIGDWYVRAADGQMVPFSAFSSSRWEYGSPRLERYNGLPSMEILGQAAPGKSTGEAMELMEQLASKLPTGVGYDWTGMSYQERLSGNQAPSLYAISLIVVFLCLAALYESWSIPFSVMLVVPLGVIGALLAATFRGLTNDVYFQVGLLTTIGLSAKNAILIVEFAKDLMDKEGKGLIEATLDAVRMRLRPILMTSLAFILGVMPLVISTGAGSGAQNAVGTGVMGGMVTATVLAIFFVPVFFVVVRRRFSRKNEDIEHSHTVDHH
Chain of AcrAB-TolC efflux pump (P0AE06 25-397, further chain): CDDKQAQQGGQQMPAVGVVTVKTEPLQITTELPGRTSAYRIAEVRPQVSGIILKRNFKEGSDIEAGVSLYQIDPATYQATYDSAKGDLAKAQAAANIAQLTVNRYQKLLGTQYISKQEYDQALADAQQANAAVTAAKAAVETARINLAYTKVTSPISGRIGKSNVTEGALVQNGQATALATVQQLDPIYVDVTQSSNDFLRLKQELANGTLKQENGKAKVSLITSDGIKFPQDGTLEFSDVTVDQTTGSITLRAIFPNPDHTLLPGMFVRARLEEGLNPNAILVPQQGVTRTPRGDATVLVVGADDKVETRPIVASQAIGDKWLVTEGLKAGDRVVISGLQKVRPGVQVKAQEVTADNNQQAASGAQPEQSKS
Chain of AcrAB-TolC efflux pump (P02930 23-493, further chain): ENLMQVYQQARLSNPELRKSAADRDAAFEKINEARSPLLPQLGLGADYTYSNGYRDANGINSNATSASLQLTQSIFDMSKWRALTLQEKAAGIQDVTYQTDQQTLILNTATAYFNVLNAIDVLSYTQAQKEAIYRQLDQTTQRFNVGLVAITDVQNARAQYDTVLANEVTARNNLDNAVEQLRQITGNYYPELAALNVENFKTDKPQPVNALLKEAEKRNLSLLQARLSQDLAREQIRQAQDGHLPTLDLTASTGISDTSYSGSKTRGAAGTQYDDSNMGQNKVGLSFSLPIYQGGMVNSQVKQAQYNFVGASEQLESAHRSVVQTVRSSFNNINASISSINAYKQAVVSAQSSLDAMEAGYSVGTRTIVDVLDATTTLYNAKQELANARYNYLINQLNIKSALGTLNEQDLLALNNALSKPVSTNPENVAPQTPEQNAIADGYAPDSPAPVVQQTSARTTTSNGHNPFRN

Row | SMILES | MIC (Escherichia coli AB1157) | H33342 accumulation (AcrAB-TolC efflux pump)
1 | CCN1CCN(C(=O)N[C@@H](C(=O)N[C@@H]2C(=O)N3[C@@H]2SC(C)(C)[C@@H]3C(=O)O)c2ccccc2)C(=O)C1=O [Piperacillin, piperacillin] | 4 µg/mL (≈ 7.73 µM) | 
2 | CC1(C)Cc2c(C#N)c(SCCc3ccccc3)nc(N3CCOCC3)c2CO1 [MBX2319] |  | increased H33342 accumulation
